In brackets after ≈: the same amount, converted by molar mass. Activity calls are given as the source filed them. The calls are words filed in the database; no cut-off is given here. Where a SMILES comes first, the peptide text is derived from it.
Columns and labels:
Escherichia coli [1] = experiment: Antibacterial activity against Escherichia coli ATCC 25922 after 18 hrs by CLSI based broth microdilution method; type: functional; details: ATCC 25922, 18 h
Escherichia coli [2] = experiment: Antibacterial activity against Escherichia coli ATCC 43837 after 18 hrs by CLSI based broth microdilution method; type: functional; details: ATCC 43837, 18 h
Klebsiella pneumoniae [3] = experiment: Antibacterial activity against Klebsiella pneumoniae ATCC 700603 after 18 hrs by CLSI based broth microdilution method; type: functional; details: Klebsiella pneumoniae, 700603, 18 h
Pseudomonas aeruginosa [4] = experiment: Antibacterial activity against Pseudomonas aeruginosa ATCC 27853 after 18 hrs by CLSI based broth microdilution method; type: functional; details: ATCC 27853, 18 h
Staphylococcus aureus [5] = experiment: Antibacterial activity against Staphylococcus aureus ATCC 25923 after 18 hrs by CLSI based broth microdilution method; type: functional; details: ATCC 25923, 18 h
Staphylococcus aureus [6] = experiment: Antibacterial activity against methicillin-resistant Staphylococcus aureus 936 after 18 hrs by CLSI based broth microdilution method; type: functional; details: Staphylococcus aureus, 936, 18 h
Bacillus subtilis = experiment: Antibacterial activity against Bacillus subtilis ATCC 23857 after 18 hrs by CLSI based broth microdilution method; type: functional; details: ATCC 23857, 18 h
Escherichia coli [7] = experiment: Ratio of MIC for antibacterial activity against Escherichia coli ATCC 25922 after 15 passages to MIC for antibacterial activity against Escherichia coli ATCC 25922 incubated for 18 hrs; type: functional
Escherichia coli [8] = experiment: Antibacterial activity against Escherichia coli ATCC 25922 at 0.5 times MIC incubated for 18 hrs measured at 1 passages by CLSI based broth microdilution method; type: functional, organism-based
Erythrocyte = experiment: Hemolytic activity in human RBC measured after 1 hr by microplate reader analysis; type: ADME, cell-based
[9] = Selectivity index, ratio of MHC10 for human RBC to geometric mean of peptide MIC for gram positive bacteria; type: toxicity; details: human red blood cells, read-out: Selectivity Index
[10] = Selectivity index, ratio of MHC10 for human RBC to geometric mean of peptide MIC for gram negative bacteria; type: toxicity; details: human red blood cells, read-out: Selectivity Index
Escherichia coli [11] = experiment: Antibacterial activity against Escherichia coli ATCC 25922 after 18 hrs in presence of NaCl by CLSI based broth microdilution method (reference value: 64 microM); type: functional; details: ATCC 25922, 18 h
Escherichia coli [12] = experiment: Antibacterial activity against Escherichia coli ATCC 25922 after 18 hrs in presence of KCl by CLSI based broth microdilution method (reference value: 64 microM); type: functional; details: ATCC 25922, 18 h
Escherichia coli [13] = experiment: Antibacterial activity against Escherichia coli ATCC 25922 after 18 hrs in presence of MgCl2 by CLSI based broth microdilution method (reference value: 64 microM); type: functional; details: ATCC 25922, 18 h
Escherichia coli [14] = experiment: Antibacterial activity against Escherichia coli ATCC 25922 after 18 hrs in presence of FeCl3 by CLSI based broth microdilution method (reference value: 64 microM); type: functional; details: ATCC 25922, 18 h
Staphylococcus aureus [15] = experiment: Antibacterial activity against Staphylococcus aureus ATCC 25923 after 18 hrs in presence of NaCl by CLSI based broth microdilution method (reference value: 64 microM); type: functional; details: ATCC 25923, 18 h
Staphylococcus aureus [16] = experiment: Antibacterial activity against Staphylococcus aureus ATCC 25923 after 18 hrs in presence of KCl by CLSI based broth microdilution method (reference value: 64 microM); type: functional; details: ATCC 25923, 18 h
Staphylococcus aureus [17] = experiment: Antibacterial activity against Staphylococcus aureus ATCC 25923 after 18 hrs in presence of MgCl2 by CLSI based broth microdilution method (reference value: 64 microM); type: functional; details: ATCC 25923, 18 h
Staphylococcus aureus [18] = experiment: Antibacterial activity against Staphylococcus aureus ATCC 25923 after 18 hrs in presence of FeCl3 by CLSI based broth microdilution method (reference value: 64 microM); type: functional; details: ATCC 25923, 18 h
Escherichia coli [19] = experiment: Potentiation of polymyxin B-induced antibacterial activity against Escherichia coli ATCC 25922 assessed as FICI after 18 hrs by checker board assay; type: functional
Klebsiella pneumoniae [20] = experiment: Potentiation of polymyxin B-induced antibacterial activity against Klebsiella pneumoniae ATCC 700603 assessed as FICI after 18 hrs by checker board assay; type: functional
Pseudomonas aeruginosa [21] = experiment: Potentiation of polymyxin B-induced antibacterial activity against Pseudomonas aeruginosa ATCC 27853 assessed as FICI after 18 hrs by checker board assay; type: functional
Escherichia coli [22] = experiment: Potentiation of rifampicin-induced antibacterial activity against Escherichia coli ATCC 25922 assessed as FICI after 18 hrs by checker board assay; type: functional
Klebsiella pneumoniae [23] = experiment: Potentiation of rifampicin-induced antibacterial activity against Klebsiella pneumoniae ATCC 700603 assessed as FICI after 18 hrs by checker board assay; type: functional
Pseudomonas aeruginosa [24] = experiment: Potentiation of rifampicin-induced antibacterial activity against Pseudomonas aeruginosa ATCC 27853 assessed as FICI after 18 hrs by checker board assay; type: functional
Escherichia coli [25] = experiment: Antimicrobial activity against Escherichia coli ATCC 25922 at 1 mM preincubated for 6 hrs in presence of 0.2 ug/ml trypsin and measured after 18 hrs by microplate reader analysis; type: functional, organism-based
Escherichia coli [26] = experiment: Antimicrobial activity against Escherichia coli ATCC 25922 at 1 mM preincubated for 6 hrs in presence of 2 ug/ml chymotrypsin and measured after 18 hrs by microplate reader analysis; type: functional, organism-based
Escherichia coli [27] = experiment: Antimicrobial activity against Escherichia coli ATCC 25922 preincubated for 1 hr in presence of 10% mouse serum and measured after 18 hrs by CLSI-based broth microdilution assay (reference value: 64 microM); type: functional
Escherichia coli [28] = experiment: Antimicrobial activity against Escherichia coli ATCC 25922 preincubated for 6 hrs in presence of 10% mouse serum and measured after 18 hrs by CLSI-based broth microdilution assay (reference value: 64 microM); type: functional
Escherichia coli [29] = experiment: Ratio of MIC for Escherichia coli ATCC 25922 preincubated for 1 hr in presence of 10% mouse serum and measured after 18 hrs to MIC for antibacterial activity against Escherichia coli ATCC 25922 after 18 hrs; type: functional
Escherichia coli [30] = experiment: Ratio of MIC for Escherichia coli ATCC 25922 preincubated for 6 hrs in presence of 10% mouse serum and measured after 18 hrs to MIC for antibacterial activity against Escherichia coli ATCC 25922 after 18 hrs; type: functional
Escherichia coli [31] = experiment: Disruption of membrane integrity in Escherichia coli ATCC 25922 assessed as membrane damage by measuring PI fluorescence at 4 times of MIC incubated for 1 hr by PI dye based flow cytometric analysis (reference value: 1.35%); type: functional
Escherichia coli [32] = experiment: Disruption of membrane integrity in Escherichia coli ATCC 25922 assessed as membrane damage by measuring PI fluorescence at 2 times of MIC incubated for 1 hr by PI dye based flow cytometric analysis (reference value: 1.35%); type: functional
Escherichia coli [33] = experiment: Induction of membrane disruption in Escherichia coli ATCC 25922 assessed as rough membrane surface at 4 times of MIC after 2 hrs by SEM analysis; type: functional, organism-based
Escherichia coli [34] = experiment: Induction of membrane disruption in Escherichia coli ATCC 25922 assessed as corrugated membrane surface at 4 times of MIC after 2 hrs by SEM analysis; type: functional, organism-based
Escherichia coli [35] = experiment: Induction of membrane disruption in Escherichia coli ATCC 25922 assessed as degeneration in membrane at 4 times of MIC after 2 hrs by SEM analysis; type: functional, organism-based
Escherichia coli [36] = experiment: Ratio of antibacterial activity against Escherichia coli ATCC 25922 in presence of NaCl to antibacterial activity against Escherichia coli ATCC 25922; type: functional
Escherichia coli [37] = experiment: Ratio of antibacterial activity against Escherichia coli ATCC 25922 in presence of KCl to antibacterial activity against Escherichia coli ATCC 25922; type: functional
Escherichia coli [38] = experiment: Ratio of antibacterial activity against Escherichia coli ATCC 25922 in presence of MgCl2 to antibacterial activity against Escherichia coli ATCC 25922; type: functional
Escherichia coli [39] = experiment: Ratio of antibacterial activity against Escherichia coli ATCC 25922 in presence of FeCl3 to antibacterial activity against Escherichia coli ATCC 25922; type: functional
Staphylococcus aureus [40] = experiment: Ratio of antibacterial activity against Staphylococcus aureus ATCC 25923 in presence of NaCl to antibacterial activity against Staphylococcus aureus ATCC 25923; type: functional
Staphylococcus aureus [41] = experiment: Ratio of antibacterial activity against Staphylococcus aureus ATCC 25923 in presence of KCl to antibacterial activity against Staphylococcus aureus ATCC 25923; type: functional
Staphylococcus aureus [42] = experiment: Ratio of antibacterial activity against Staphylococcus aureus ATCC 25923 in presence of MgCl2 to antibacterial activity against Staphylococcus aureus ATCC 25923; type: functional
Staphylococcus aureus [43] = experiment: Ratio of antibacterial activity against Staphylococcus aureus ATCC 25923 in presence of FeCl3 to antibacterial activity against Staphylococcus aureus ATCC 25923; type: functional
Staphylococcus aureus [44] = experiment: Antibiofilm activity against Staphylococcus aureus ATCC 25923 at 1 to 2 times of MIC after 24 hrs by crystal violet staining based assay; type: functional, organism-based
Escherichia coli [45] = experiment: Induction of membrane disruption in Escherichia coli ATCC 25922 assessed as fracture in membrane at 4 times of MIC after 2 hrs by SEM analysis; type: functional, organism-based
Escherichia coli [46] = experiment: Induction of ROS generation in Escherichia coli ATCC 25922; type: functional, organism-based

CO[C@H]1/C=C/O[C@@]2(C)Oc3c(C)c(O)c4c(O)c(c(/C=N/N5CCN(C)CC5)c(O)c4c3C2=O)NC(=O)/C(C)=C\C=C\[C@H](C)[C@H](O)[C@@H](C)[C@@H](O)[C@@H](C)[C@H](OC(C)=O)[C@@H]1C [RIFAMPIN]
MIC (Escherichia coli [1]): 4 µM (≈ 3.29 µg/mL)
MIC (Escherichia coli [2]): 2 µM (≈ 1.65 µg/mL)
MIC (Klebsiella pneumoniae [3]): 32 µM (≈ 26.3 µg/mL)
MIC (Pseudomonas aeruginosa [4]): 32 µM (≈ 26.3 µg/mL)
MIC (Staphylococcus aureus [5]): < 1 µM
MIC (Staphylococcus aureus [6]): < 1 µM
MIC (Bacillus subtilis): < 1 µM
Ratio (Escherichia coli [7]): >32
Activity (Escherichia coli [8]): Active

CC[C@H](C)[C@H](NC(=O)[C@H](CCCNC(=N)N)NC(=O)[C@H](CCCCN)NC(=O)[C@H](CC(C)C)NC(=O)[C@H](CC(C)C)NC(=O)CN)C(=O)N[C@@H](CCCCN)C(=O)N[C@H](C(=O)N[C@@H](CC(C)C)C(=O)N[C@@H](CC(C)C)C(N)=O)[C@@H](C)O [ANOPLIN] (H-GLLKRIKTLL-NH2)
MIC (Escherichia coli [1]): 64 µM (≈ 73.8 µg/mL)
MIC (Escherichia coli [2]): 8 µM (≈ 9.23 µg/mL)
MIC (Klebsiella pneumoniae [3]): 64 µM (≈ 73.8 µg/mL)
MIC (Pseudomonas aeruginosa [4]): 16 µM (≈ 18.5 µg/mL)
MIC (Staphylococcus aureus [5]): 64 µM (≈ 73.8 µg/mL)
MIC (Staphylococcus aureus [6]): 64 µM (≈ 73.8 µg/mL)
MIC (Bacillus subtilis): 8 µM (≈ 9.23 µg/mL)
MHC10 (Erythrocyte): > 256 µM
selectivity ratio [9]: 11.3
selectivity ratio [10]: 13.5
MIC (Escherichia coli [11]): 128 µM
MIC (Escherichia coli [12]): 32 µM
MIC (Escherichia coli [13]): 32 µM
MIC (Escherichia coli [14]): 32 µM
MIC (Staphylococcus aureus [15]): > 128 µM
MIC (Staphylococcus aureus [16]): 64 µM
MIC (Staphylococcus aureus [17]): > 128 µM
MIC (Staphylococcus aureus [18]): 128 µM
fractional inhibitory concentration index (FICI) (Escherichia coli [19]): 0.1875
fractional inhibitory concentration index (FICI) (Klebsiella pneumoniae [20]): 0.3125
fractional inhibitory concentration index (FICI) (Pseudomonas aeruginosa [21]): 0.3125
fractional inhibitory concentration index (FICI) (Escherichia coli [22]): 0.125
fractional inhibitory concentration index (FICI) (Klebsiella pneumoniae [23]): 0.125
fractional inhibitory concentration index (FICI) (Pseudomonas aeruginosa [24]): 0.1875
Activity (Escherichia coli [25]): inactive
Activity (Escherichia coli [26]): inactive
MIC (Escherichia coli [27]): 64 µM
MIC (Escherichia coli [28]): > 128 µM
Ratio (Escherichia coli [29]): 1
Ratio (Escherichia coli [30]): >2
Activity (Escherichia coli [31]): 62.1%
Activity (Escherichia coli [32]): 20.4%
Activity (Escherichia coli [33]): Active
Activity (Escherichia coli [34]): Active
Activity (Escherichia coli [35]): Active
Ratio (Escherichia coli [36]): 2 - 4
Ratio (Escherichia coli [37]): 2 - 4
Ratio (Escherichia coli [38]): 2 - 4
Ratio (Escherichia coli [39]): 2 - 4
Ratio (Staphylococcus aureus [40]): 2 - 4
Ratio (Staphylococcus aureus [41]): 2 - 4
Ratio (Staphylococcus aureus [42]): 2 - 4
Ratio (Staphylococcus aureus [43]): 2 - 4
inhibition (Staphylococcus aureus [44]): Active
Activity (Escherichia coli [45]): Active
Activity (Escherichia coli [46]): inactive

Source: ChEMBL document CHEMBL4359906, “Design and synthesis of new N-terminal fatty acid modified-antimicrobial peptide analogues with potent in vitro biological activity” (Eur J Med Chem, 2019)
